Test: Solubility measurement of acid chlorides containing one carboxylic acid moiety in hydrocarbon solvents (saturated solutions, proton NMR)
Type: physicochemical
Conditions: saturated solution, 20°C and 101 kPa
Description: Solubility measurement of acid chlorides containing one carboxylic acid moiety in hydrocarbon solvents with and without solubility enhancing additives: • Saturated solutions of sample acid chlorides containing carboxylic acid moieties were prepared in hydrocarbon solvents with and without the presence of trialkylphosphate additives by adding more sample than will dissolve in the solvent and decanting the saturated solvent from the undissolved precipitate. The saturated solutions were evaluated by proton NMR. Deuterated Isopar L is not commercially available, thus all spectra were acquired in the unlocked condition using regular Isopar L. Because of the very high proton concentration in running a non-deuterated solvent, 60° pulse and minimum receiver gain were used to avoid receiver overflow. A relaxation delay of 8 seconds was used for complete signal recovery between scans. The spectral width was set to 20 ppm and the center of the spectrum was set to 5 ppm. Depending on the concentrations of the species of interest, 64-256 scans were used for signal averaging.
The area of the Isopar L peaks between 0.75 and 2.0 ppm were measure and divided by 26 (which represents the average H's present in Isopar L, assuming a molecular formula of C12H26) and multiplied by 170.33, the formula weight of C12H26. The peak area of the aromatic acid chlorides containing carboxylates are between 8.9 - 9.2 ppm and are well resolved from the Isopar solvent. The integration of one of the assigned peaks (for example, the triplet of mono-hydrolyzed TMC at 9.0 ppm represents a single proton) was used to determine the relative weight of the sample in the Isopar L solvent. The integration is divided by the number of protons it represents and multiplied by the formula weight of the compound it represents (for example, the triplet of mono-hydrolyzed TMC at 9.0 ppm would be divided by 1 and multiplied by 247.03 g/mol). The wt% of mono-hydrolyzed TMC in the saturated solution is determined by dividing the value obtained for mono-hydrolyzed TMC by the value obtained for Isopar L.
In the presence of tributylphosphate (TBP), the Isopar L value must be corrected since a few protons of TBP cannot be resolved from the Isopar L peaks. This is done by integrating the -OCH2-protons of TBP which are well resolved at ∼4.05 ppm, dividing this value by 6 (for 6 protons). This area value is then multiplied by 21 (represents the three -CH2CH2CH3 that are unresolved from the Isopar L peak) and subtracted from the peak area of Isopar L. Table 2: […]

Solubility (wt%) (Solvent: Isopar L + 0.47 wt% TBP) | Solubility (wt%) (Solvent: Isopar L, no additive) | Solubility (wt%) (Solvent: 80/20 Isopar L / Toluene, no additive) | Solubility (wt%) (Solvent: 80/20 Isopar L/Toluene + 0.25 wt% TBP) | Solubility (wt%) (Solvent: Isopar L + 1 wt% TEHP) | Solubility (wt%) (Solvent: Isopar L + 1 wt% TEP) | SMILES
0.29 | <0.02 |  |  |  |  | O=C(O)c1cccc(C(=O)Cl)c1 [mhIPC]
 | 0.02 | 0.05 | 0.29 | 0.11 | 0.2 | O=C(O)c1cc(C(=O)Cl)cc(C(=O)Cl)c1 [mhTMC, mono-hydrolyzed trimesoyl chloride]

— patent publication EP2627439B1, “METHOD FOR SOLUBILIZING CARBOXYLIC ACID-CONTAINING COMPOUND IN HYDROCARBON SOLVENT” (Dow Global Technologies LLC, priority 2011, dated 2013)
